Test results: patent US9193719B2, “1,2,4-triazol-5-ones and analogs exhibiting anti-cancer and anti-proliferative activities” (Deciphera Pharmaceuticals, LLC, priority 2013, dated 2015)

What was measured:
M-NFS-60 cells = assay: M-NFS-60 cell proliferation assay (resazurin); format: cell-based; conditions: 67 h incubation
In short: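 Cells kept in medium containing 20 ng/mL mouse recombinant M-CSF. Fluorescence was read at ex 540/em 600 nm, and IC50 was fitted from percent inhibition across a range of inhibitor concentrations.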

[1] = system: phospho-FMS in THP-1 cells; assay: Phospho-FMS ELISA assay in THP-1 cells; format: cell-based; conditions: Homo sapiens, 4 h compound, M-CSF stimulation 5 min, read-out: pFMS inhibition in THP-1 cells
Experimental: THP-1 cells (catalog #TIB-202) were obtained from the ATCC. Briefly, cells were grown in RPMI 1640 supplemented with 10% characterized fetal bovine serum, 1% sodium pyruvate, 1% Penicillin-Streptomycin-Glutamine (PSG) and 55 uM 2-mercaptoethanol (Invitrogen, Carlsbad, Calif.) at 37 degrees Celsius, 5% CO2, 95% humidity. Cells were allowed to expand until reaching 70-95% confluency at which point they were subcultured or harvested for assay use.
A serial dilution of test compound was diluted 1:100 in assay medium (RPMI 1640 supplemented with 10% characterized fetal bovine serum) in a 96 well black clear bottom plate (Corning, Corning, N.Y.). In a separate 96 well black clear bottom plate, one hundred and fifty thousand THP-1 cells were added per well in 100 μL in assay medium. Fifty microliters of diluted compound was then added to the cells. Plates were incubated for 4 hours at 37 degrees Celsius, 5% CO2, 95% humidity. At the end of the incubation period, cells were stimulated with 50 μL of a 100 nM solution of recombinant human M-CSF (catalog #216-MC, R & D Systems, Minneapolis, Minn.) in assay medium and the plate was incubated for 5 minutes at 37 degrees Celsius, 5% CO2, 95% humidity. Lysates were prepared and used to perform the phospho-FMS ELISA as described by the manufacturer (catalog #DYC3268, R & D Systems, Minneapolis, Minn.). GraphPad Prism was used to calculate IC50 values obtained from data generated from the ELISA assay.

osteoclast precursors = assay: Osteoclast tartrate-resistant acid phosphatase assay; format: cell-based; conditions: RANKL and M-CSF, 7-14 days, tartrate-resistant acid phosphatase activity
[2] = target: T1, unphosphorylated c-KIT kinase (uKIT, Seq. ID no. 2) (Homo sapiens, UniProt P10721); assay: uKit kinase enzymatic assay (pyruvate kinase/lactate dehydrogenase coupled); format: biochemical; conditions: ATP 2000 μM, rate 3 to 4 h
T1 construct: uKit with N-terminal GST fusion used for screening
In short: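 Coupled pyruvate kinase/lactate dehydrogenase readout of ADP, following NADH oxidation at A340 continuously for 4 h at 30 °C. Mix: 12 nM unphosphorylated KIT, 1 mg/mL polyE4Y, 2000 μM ATP, 10 mM MgCl2, 90 mM Tris pH 7.5, 0.2% octyl-glucoside, 1% DMSO. IC50 from % inhibition of rates at 3–4 h.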

T1 sequence (P10721 with tags, fused parts or gaps): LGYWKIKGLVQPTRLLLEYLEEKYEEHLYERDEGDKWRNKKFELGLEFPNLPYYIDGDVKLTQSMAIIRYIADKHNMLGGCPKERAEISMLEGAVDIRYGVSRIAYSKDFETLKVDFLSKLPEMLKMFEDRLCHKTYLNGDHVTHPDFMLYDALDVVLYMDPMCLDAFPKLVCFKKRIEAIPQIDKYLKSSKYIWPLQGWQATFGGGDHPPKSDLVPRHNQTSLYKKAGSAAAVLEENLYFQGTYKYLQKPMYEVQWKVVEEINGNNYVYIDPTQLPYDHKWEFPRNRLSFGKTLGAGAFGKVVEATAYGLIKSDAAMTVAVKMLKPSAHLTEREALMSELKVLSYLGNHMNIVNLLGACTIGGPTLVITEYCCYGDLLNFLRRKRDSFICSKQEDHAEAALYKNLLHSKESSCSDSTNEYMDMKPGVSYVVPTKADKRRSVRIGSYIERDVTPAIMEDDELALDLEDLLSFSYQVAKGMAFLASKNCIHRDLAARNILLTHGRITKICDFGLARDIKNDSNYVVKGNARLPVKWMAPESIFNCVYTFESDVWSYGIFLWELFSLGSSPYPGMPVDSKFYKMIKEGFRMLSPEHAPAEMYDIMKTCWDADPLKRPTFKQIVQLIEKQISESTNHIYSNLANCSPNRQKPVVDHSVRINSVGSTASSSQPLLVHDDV

| SMILES | IC50 [1] | IC50 (osteoclast precursors) | IC50 [2] | IC50 (M-NFS-60 cells) |
| --- | --- | --- | --- | --- |
| Cc1nc(-n2nc(C(C)(C)C)[nH]c2=O)ccc1Oc1ccnc(NC(=O)N(C)C)c1 [Example 30, 3-(4-((6-(3-(tert-butyl)-5-oxo-4,5-dihydro-1H-1,2,4-triazol-1-yl)-2-methylpyridin-3-yl)oxy)pyridin-2-yl)-1,1-dimethylurea] | 100 to 1000 nM | 10 to 100 nM | > 1000 nM | > 1000 nM |
| Cc1nc(-n2nc(CC(C)(C)C)[nH]c2=O)ccc1Oc1ccnc(-c2cnn(C)c2)c1 [Example 36, 1-(6-methyl-5-((2-(1-methyl-1H-pyrazol-4-yl)pyridin-4-yl)oxy)pyridin-2-yl)-3-neopentyl-1H-1,2,4-triazol-5(4H)-one] | 10 to 100 nM | 10 to 100 nM | 10 to 100 nM | 10 to 100 nM |
| Cc1nc(-n2nc(C3CCC3)[nH]c2=O)ccc1Oc1ccnc(-c2cnn(C)c2)c1 [Example 37, 3-cyclobutyl-1-(6-methyl-5-((2-(1-methyl-1H-pyrazol-4-yl)pyridin-4-yl)oxy)pyridin-2-yl)-1H-1,2,4-triazol-5(4H)-one] | ≤ 10 nM | ≤ 10 nM | 100 to 1000 nM | 10 to 100 nM |
| Cc1nc(-n2nc(C(C)(C)C)[nH]c2=O)ccc1Oc1ccnc(-c2cnco2)c1 [Example 39, 3-(tert-butyl)-1-(6-methyl-5-((2-(oxazol-5-yl)pyridin-4-yl)oxy)pyridin-2-yl)-1H-1,2,4-triazol-5(4H)-one] | 100 to 1000 nM | 10 to 100 nM | > 1000 nM | 10 to 100 nM |
| Cc1nc(-n2nc(C3(C(F)(F)F)CCC3)[nH]c2=O)ccc1Oc1ccnc(-c2cnn(C)c2)c1 [Example 43, 1-(6-methyl-5-((2-(1-methyl-1H-pyrazol-4-yl)pyridin-4-yl)oxy)pyridin-2-yl)-3-(1-(trifluoromethyl)cyclobutyl)-1H-1,2,4-triazol-5(4H)-one] | 100 to 1000 nM | 10 to 100 nM | 10 to 100 nM | 100 to 1000 nM |
| Cc1nc(-n2cc(C(C)(C)C)[nH]c2=O)ccc1Oc1ccnc(-c2cnn(C)c2)c1 [Example 48, 4-(tert-butyl)-1-(6-methyl-5-((2-(1-methyl-1H-pyrazol-4-yl)pyridin-4-yl)oxy)pyridin-2-yl)-1H-imidazol-2(3H)-one] | 10 to 100 nM | 10 to 100 nM | > 1000 nM | 10 to 100 nM |
| Cc1nc(-n2nc(C(C)(C)C)oc2=O)ccc1Oc1ccnc(-c2cnn(C)c2)c1 [Example 49, 5-(tert-butyl)-3-(6-methyl-5-((2-(1-methyl-1H-pyrazol-4-yl)pyridin-4-yl)oxy)pyridin-2-yl)-1,3,4-oxadiazol-2(3H)-one] | 10 to 100 nM | 10 to 100 nM | 100 to 1000 nM | 10 to 100 nM |

Continued, in another order:

| IC50 [1] | IC50 (osteoclast precursors) | IC50 [2] | SMILES | IC50 (M-NFS-60 cells) |
| --- | --- | --- | --- | --- |
| 10 to 100 nM | 10 to 100 nM | 10 to 100 nM | Cc1cc(-n2nc(C(C)(C)C)[nH]c2=O)ncc1Oc1ccnc(-c2cnn(C)c2)c1 [Example 31, 3-(tert-butyl)-1-(4-methyl-5-((2-(1-methyl-1H-pyrazol-4-yl)pyridin-4-yl)oxy)pyridin-2-yl)-1H-1,2,4-triazol-5(4H)-one] | 10 to 100 nM |
| 10 to 100 nM | 100 to 1000 nM | 100 to 1000 nM | Cc1cc(-n2nc(C(C)(C)C)[nH]c2=O)nc(C)c1Oc1ccnc(-c2cnn(C)c2)c1 [Example 33, 3-(tert-butyl)-1-(4,6-dimethyl-5-((2-(1-methyl-1H-pyrazol-4-yl)pyridin-4-yl)oxy)pyridin-2-yl)-1H-1,2,4-triazol-5(4H)-one] | 100 to 1000 nM |
| 100 to 1000 nM | 10 to 100 nM | > 1000 nM | CCn1cc(-c2cc(Oc3ccc(-n4nc(C(C)(C)C)[nH]c4=O)nc3C)ccn2)cn1 [Example 38, 3-(tert-butyl)-1-(5-((2-(1-ethyl-1H-pyrazol-4-yl)pyridin-4-yl)oxy)-6-methylpyridin-2-yl)-1H-1,2,4-triazol-5(4H)-one] | 10 to 100 nM |
| 100 to 1000 nM | 10 to 100 nM | 100 to 1000 nM | COCC(C)(C)c1nn(-c2ccc(Oc3ccnc(-c4cnn(C)c4)c3)c(C)n2)c(=O)[nH]1 [Example 46, 3-(1-methoxy-2-methylpropan-2-yl)-1-(6-methyl-5-((2-(1-methyl-1H-pyrazol-4-yl)pyridin-4-yl)oxy)pyridin-2-yl)-1H-1,2,4-triazol-5(4H)-one] | 100 to 1000 nM |
| 10 to 100 nM | 10 to 100 nM | > 1000 nM | Cc1nc(-n2nc(C(C)(C)C)[nH]c2=O)ccc1Oc1cc(-c2cnn(C)c2)ncn1 [Example 47, 3-(tert-butyl)-1-(6-methyl-5-((6-(1-methyl-1H-pyrazol-4-yl)pyrimidin-4-yl)oxy)pyridin-2-yl)-1H-1,2,4-triazol-5(4H)-one] | 100 to 1000 nM |
